{
  "source": "patent US9808003B2",
  "about": "“Herbicidally active 2-(substituted-phenyl)-cyclopentane-1,3-dione compounds and derivatives thereof” (Syngenta Limited, priority 2013, dated 2017)",
  "format_in_all_cases": "in vivo",
  "key": {"[1]": {"tested_on": "grassy monocotyledonous weeds", "experiment": "Test 1B glasshouse assay, post-emergence, comparison of separated enantiomers, weeds overall", "details": "chiral-column-separated enantiomers, A98 vs A99 and A100 vs A101, Biological Example 1B", "procedure": "Biological Example 1B tests the herbicidal activity of“technical” compounds (i.e. compounds not previously formulated before the test), as the herbicides under test.\nAn “instant formulation”, known as the “IF50”, containing 50 g/liter (i.e. 5% w/v) of the “technical” (i.e. unformulated) active ingredient (i.e. the herbicide under test), is prepared by dissolving the active ingredient in a mixture of organic solvents and emulsifier, details of which are provided in the Table below. […]\nThe test plants are then grown on under controlled conditions in the glasshouse (at 22/16° C., day/night; 16 hours light; 65% humidity) and are watered twice daily. 14 days after application of the test herbicide, the test is evaluated visually for percentage phytotoxicity to the plant (where 100%=total damage to plant; 0%=no damage to plant). […]\nHerbicidal activity (phytotoxicity) is evaluated visually, and an assessed percentage phytotoxicity score is given for each herbicidal application on each plant species (with 100%=total damage to plant; 0%=no damage to plant; the assessment is recorded in increments of 1%). […]"}, "[2]": {"tested_on": "Winter Wheat “Hereward”", "experiment": "Test 1B glasshouse assay, post-emergence herbicidal activity against cereal crops", "details": "14 DAA", "outline": "(§1)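 Technical compound in IF50 with acetone, diluted into 0.5% v/v Adigor, sprayed post-emergence on 14-day glasshouse plants (22/16 °C, 16 h light, 65% humidity), typically at 60, 90 or 120 g/ha, with or without 50 g/ha cloquintocet-mexyl safener. Phytotoxicity scored visually 14 DAA (0–100%), mean of two replicates.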"}, "[3]": {"tested_on": "Spring Wheat “Teal”", "experiment": "Test 1B glasshouse assay, post-emergence herbicidal activity against cereal crops", "details": "14 DAA", "outline": "as §1"}, "[4]": {"tested_on": "Winter Barley “Suzuka”", "experiment": "Test 1B glasshouse assay, post-emergence herbicidal activity against cereal crops", "details": "14 DAA", "outline": "as §1"}, "[5]": {"tested_on": "Spring Barley “Harrington”", "experiment": "Test 1B glasshouse assay, post-emergence herbicidal activity against cereal crops", "details": "14 DAA", "outline": "as §1"}, "[6]": {"tested_on": "Avena fatua (AVEFA)", "experiment": "Test 1B glasshouse assay, post-emergence herbicidal activity against grassy weeds", "details": "14 DAA", "outline": "(§2)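 Post-emergence spray, 14-day-old plants, glasshouse 22/16 °C day/night, 16 h light, 65% humidity. Test herbicide typically 60, 90 or 120 g/ha; cloquintocet-mexyl safener 50 g/ha optional at 60, included at 90/120. Scored visually 14 DAA, 0–100% damage, 2 reps averaged.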"}, "[7]": {"tested_on": "Setaria viridis (SETVI)", "experiment": "Test 1B glasshouse assay, post-emergence herbicidal activity against grassy weeds", "details": "14 DAA", "outline": "as §2"}, "[8]": {"tested_on": "Alopecurus myosuroides (ALOMY)", "experiment": "Test 1B glasshouse assay, post-emergence herbicidal activity against grassy weeds", "details": "14 DAA", "outline": "as §2"}, "[9]": {"tested_on": "Lolium multiflorum (LOLMU)", "experiment": "Test 1B glasshouse assay, post-emergence herbicidal activity against grassy weeds", "details": "14 DAA", "outline": "as §2"}, "[10]": {"tested_on": "Poa annua (POAAN)", "experiment": "Test 1B glasshouse assay, post-emergence herbicidal activity against grassy weeds", "details": "14 DAA", "outline": "as §2"}, "[11]": {"details": "30 g/ha herbicide, 50 g/ha cloquintocet-mexyl"}, "[12]": {"details": "45 g/ha herbicide, 50 g/ha cloquintocet-mexyl"}, "[13]": {"details": "60 g/ha herbicide, 0 g/ha cloquintocet-mexyl"}, "[14]": {"details": "60 g/ha herbicide, 50 g/ha cloquintocet-mexyl"}},
  "data": [
    {"smiles": "CCc1cc(-n2cc(Cl)cn2)cc(C)c1C1C(=O)C[C@@H](CCNC(=O)c2ccccn2)C1=O", "note": "(stereo partly shown) [Compound A100]", "values": [
      {"measurement": "herbicidal activity against grassy monocotyledonous weeds compared with the compound of opposite stereochemistry", "setting": "[1]", "result": "more potent herbicidal activity"},
      {"measurement": "Post-emergence herbicidal activity against cereal crops, percentage phytotoxicity, Winter Wheat “Hereward”", "setting": "[2]; [11]", "result": 15, "unit": "%"},
      {"measurement": "Post-emergence herbicidal activity against cereal crops, percentage phytotoxicity, Winter Wheat “Hereward”", "setting": "[2]; [12]", "result": 30, "unit": "%"},
      {"measurement": "Post-emergence herbicidal activity against cereal crops, percentage phytotoxicity, Winter Wheat “Hereward”", "setting": "[2]; [13]", "result": 60, "unit": "%"},
      {"measurement": "Post-emergence herbicidal activity against cereal crops, percentage phytotoxicity, Winter Wheat “Hereward”", "setting": "[2]; [14]", "result": 40, "unit": "%"},
      {"measurement": "Post-emergence herbicidal activity against cereal crops, percentage phytotoxicity, Spring Wheat “Teal”", "setting": "[3]; [11]", "result": 20, "unit": "%"},
      {"measurement": "Post-emergence herbicidal activity against cereal crops, percentage phytotoxicity, Spring Wheat “Teal”", "setting": "[3]; [12]", "result": 30, "unit": "%"},
      {"measurement": "Post-emergence herbicidal activity against cereal crops, percentage phytotoxicity, Spring Wheat “Teal”", "setting": "[3]; [13]", "result": 65, "unit": "%"},
      {"measurement": "Post-emergence herbicidal activity against cereal crops, percentage phytotoxicity, Spring Wheat “Teal”", "setting": "[3]; [14]", "result": 45, "unit": "%"},
      {"measurement": "Post-emergence herbicidal activity against cereal crops, percentage phytotoxicity, Winter Barley “Suzuka”", "setting": "[4]; [11]", "result": 10, "unit": "%"},
      {"measurement": "Post-emergence herbicidal activity against cereal crops, percentage phytotoxicity, Winter Barley “Suzuka”", "setting": "[4]; [12]", "result": 30, "unit": "%"},
      {"measurement": "Post-emergence herbicidal activity against cereal crops, percentage phytotoxicity, Winter Barley “Suzuka”", "setting": "[4]; [13]", "result": 93, "unit": "%"},
      {"measurement": "Post-emergence herbicidal activity against cereal crops, percentage phytotoxicity, Winter Barley “Suzuka”", "setting": "[4]; [14]", "result": 53, "unit": "%"},
      {"measurement": "Post-emergence herbicidal activity against cereal crops, percentage phytotoxicity, Spring Barley “Harrington”", "setting": "[5]; [11]", "result": 13, "unit": "%"},
      {"measurement": "Post-emergence herbicidal activity against cereal crops, percentage phytotoxicity, Spring Barley “Harrington”", "setting": "[5]; [12]", "result": 18, "unit": "%"},
      {"measurement": "Post-emergence herbicidal activity against cereal crops, percentage phytotoxicity, Spring Barley “Harrington”", "setting": "[5]; [13]", "result": 83, "unit": "%"},
      {"measurement": "Post-emergence herbicidal activity against cereal crops, percentage phytotoxicity, Spring Barley “Harrington”", "setting": "[5]; [14]", "result": 28, "unit": "%"},
      {"measurement": "Post-emergence herbicidal activity, percentage phytotoxicity, AVEFA", "setting": "[6]; [11]", "result": 100, "unit": "%"},
      {"measurement": "Post-emergence herbicidal activity, percentage phytotoxicity, AVEFA", "setting": "[6]; [12]", "result": 100, "unit": "%"},
      {"measurement": "Post-emergence herbicidal activity, percentage phytotoxicity, AVEFA", "setting": "[6]; [13]", "result": 100, "unit": "%"},
      {"measurement": "Post-emergence herbicidal activity, percentage phytotoxicity, AVEFA", "setting": "[6]; [14]", "result": 100, "unit": "%"},
      {"measurement": "Post-emergence herbicidal activity, percentage phytotoxicity, SETVI", "setting": "[7]; [11]", "result": 95, "unit": "%"},
      {"measurement": "Post-emergence herbicidal activity, percentage phytotoxicity, SETVI", "setting": "[7]; [12]", "result": 99, "unit": "%"},
      {"measurement": "Post-emergence herbicidal activity, percentage phytotoxicity, SETVI", "setting": "[7]; [13]", "result": 99, "unit": "%"},
      {"measurement": "Post-emergence herbicidal activity, percentage phytotoxicity, SETVI", "setting": "[7]; [14]", "result": 99, "unit": "%"},
      {"measurement": "Post-emergence herbicidal activity, percentage phytotoxicity, ALOMY", "setting": "[8]; [11]", "result": 55, "unit": "%"},
      {"measurement": "Post-emergence herbicidal activity, percentage phytotoxicity, ALOMY", "setting": "[8]; [12]", "result": 75, "unit": "%"},
      {"measurement": "Post-emergence herbicidal activity, percentage phytotoxicity, ALOMY", "setting": "[8]; [13]", "result": 83, "unit": "%"},
      {"measurement": "Post-emergence herbicidal activity, percentage phytotoxicity, ALOMY", "setting": "[8]; [14]", "result": 78, "unit": "%"},
      {"measurement": "Post-emergence herbicidal activity, percentage phytotoxicity, LOLMU", "setting": "[9]; [11]", "result": 100, "unit": "%"},
      {"measurement": "Post-emergence herbicidal activity, percentage phytotoxicity, LOLMU", "setting": "[9]; [12]", "result": 100, "unit": "%"},
      {"measurement": "Post-emergence herbicidal activity, percentage phytotoxicity, LOLMU", "setting": "[9]; [13]", "result": 100, "unit": "%"},
      {"measurement": "Post-emergence herbicidal activity, percentage phytotoxicity, LOLMU", "setting": "[9]; [14]", "result": 100, "unit": "%"},
      {"measurement": "Post-emergence herbicidal activity, percentage phytotoxicity, POAAN", "setting": "[10]; [11]", "result": 73, "unit": "%"},
      {"measurement": "Post-emergence herbicidal activity, percentage phytotoxicity, POAAN", "setting": "[10]; [12]", "result": 78, "unit": "%"},
      {"measurement": "Post-emergence herbicidal activity, percentage phytotoxicity, POAAN", "setting": "[10]; [13]", "result": 80, "unit": "%"},
      {"measurement": "Post-emergence herbicidal activity, percentage phytotoxicity, POAAN", "setting": "[10]; [14]", "result": 78, "unit": "%"}
    ]}
  ]
}
